# Measured values published in PubChem BioAssay AID1337 (NMMLSC, 2008).
# Target: Ras-related protein Rab-2A (Canis lupus familiaris) (UniProt P61105)
# Assay: potency of blocking fluorescent GTP on Rab2A – biochemical, GST-Rab2 beads, Bodipy-FL-GTP, flow cytometry, multiplex, dose response (AID 1337)
# Conditions: Bead-bound GST-Rab2 wt, Bodipy-FL-GTP binding
row,SMILES,EC50
1,OC(CNCCC1C=Nc2ccccc21)Cn1c2ccc(Cl)cc2c2cc(Cl)ccc21 (stereo not drawn),26.3 µM
2,COC(=O)c1c(N2C(=O)[C@H]3[C@@H](C2=O)[C@]2(C(=O)Nc4c(C)cc(C)cc42)N2CCC[C@@H]32)sc(C)c1C,1.99 µM
3,O=[N+]([O-])c1cc2oc3c(c2c(C=NCc2ccccc2)c1O)CCCC3,4.02 µM
